Reference: publication PMC6403188, “Species-Specific Structural Requirements of Alpha-Branched Trehalose Diester Mincle Agonists” (Frontiers in Immunology, 2019)

Target: T1, mouse Mincle (Mus musculus, UniProt Q9R0Q8)
T1 construct: host or cells: HEK (HEK-Blue) cells with NF-κB-driven SEAP reporter
T1 sequence (Q9R0Q8 1-214): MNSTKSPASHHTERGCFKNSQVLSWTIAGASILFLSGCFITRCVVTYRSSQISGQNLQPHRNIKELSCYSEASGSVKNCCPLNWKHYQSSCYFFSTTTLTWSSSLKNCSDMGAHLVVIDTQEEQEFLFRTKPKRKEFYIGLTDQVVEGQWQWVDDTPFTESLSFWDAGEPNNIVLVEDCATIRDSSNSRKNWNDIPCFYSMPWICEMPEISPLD
Assay: HEK cells expressing mouse Mincle with NF-κB-driven SEAP reporter
Format: cell-based
Method: Human and mouse Mincle expressing HEK cells were obtained from Invivogen (San Diego, CA). Cells were cultured according to the manufactures instructions in DMEM with 10% FBS, 50 U/ml penicillin, […] streptomycin, […] Normocin, 2 mM L-glutamine, 30 μg/ml blasticidin, 1 μg/ml puromycin and 1x HEK-Blue™ CLR Selection. For assay, indicated compounds were serially diluted in diluent (50%IPA/50% isooctane), 20 μl of a 10x final concentration were applied to the bottom of a 96-well tissue culture plate and the solvent was evaporated for >1 h in a biosafety hood. HEK cells were applied to the plates at a density of 3 × 10^5 cells/well and incubated for 18–24 h at 37°C. Cell supernatants were harvested and analyzed via the manufacturer's instructions using Hek-Blue^TM Detection. SEAP activity was assessed by reading the optical density (OD) at 620–655 nm with a microplate reader; data are expressed as the fold change in OD over vehicle treated cells.
To investigate the capacity of these molecules to bind to and activate the Mincle receptor, we used human embryonic kidney (HEK) cells expressing the human or mouse Mincle receptor along with an NF-κB-driven secreted embryonic alkaline phosphatase (SEAP) reporter. Many of the αTDE compounds were able to induce production of SEAP in a dose dependent manner (Figure 2). HEK null cells (HEK cells containing the NF-kB reporter without Mincle receptor) were used as a negative controls to confirm the receptor specificity of the compounds in HEK cells expressing human or mouse Mincle reporter (Supplemental Figure 4). […] The relative activity of TDM and TDB in the human and mouse HEK cells is consistent with the results reported by others ([20]). […] This synthetic version is a shorter chain version of the lipid-derived one reported to be “human-specific” ([28]).
Figure 2 Activation of human or mouse Mincle in response to synthetic αTDE compounds. The indicated compounds were dissolved in 50% isopropanol/isooctane, serially diluted in vehicle and then dried to the bottom of a tissue culture plate. HEK cells transfected with human (A–C) or mouse (D–F) Mincle and an NF-κB-driven SEAP reporter were incubated with the compounds for 24 h followed by assessment of the supernatants for SEAP levels. Data are represented as fold change in OD650 over vehicle treated cells. Graphs are mean values from three independent experiments ± SEM. Table in (G) represents the average calculated EC50 and average max SEAP value (± SD, n = 3) for each compound in each cell line. […]

SMILES: CCCCCCCCCCCCCCCCCCCCCC(=O)OC[C@H]1O[C@H](O[C@H]2O[C@H](COC(=O)CCCCCCCCCCCCCCCCCCCCC)[C@@H](O)[C@H](O)[C@H]2O)[C@H](O)[C@@H](O)[C@@H]1O [TDB, trehalose dibehenate, reference compound]
- Relative activity in mouse vs. human Mincle HEK cells (comparison of mouse and human Mincle receptor transfected HEK cells): more potent in the mouse vs. the human
- SEAP induction / activation of mouse Mincle-expressing HEK cells (in words) (plate-coated compound, 24 h): robust ability to activate
